Data reported in US20230167437A1, “COMPOSITIONS FOR TREATING CANCER WITH KRAS MUTATIONS AND USES THEREOF” (Aadigen, LLC, priority 2020, published 2023).

Columns and labels:
Format in all cases: cell-based, human
wild type KRAS = experiment: Indel frequencies at the endogenous target sequences (T7E1 / deep sequencing) after ADGN/Cas9 mRNA/gRNA transfection; conditions: deep sequencing, 72 hours after transfection, Cas9 mRNA 0.1 μg, gRNA 0.2 μg
Procedure, shortened: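 Cas9 mRNA and gRNA complexed with ADGN peptide (20:1 molar ratio) and transfected into KRAS-mutant (G12V or G12D) and other cancer cell lines in 48-well format, 2 h exposure in serum-free DMEM. Indels at endogenous target sites measured 72 h post-transfection by T7E1 or deep sequencing.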

phospho-Akt (Ser 473) = experiment: Western blot of KRAS downstream signaling 48 h post transfection; conditions: PANC-1 cells
Method: (§1) In order to verify the specific effect of your lead sgRNA targeting G12V and G12D KRAS mutation, gRNA35A5 G12D and gRNA35T3 G12V on KRAS signal transduction pathway in PANC-1 and SW403 cells, we measured the levels of downstream signaling proteins that are activated by KRAS. We specifically looked for changes in key signaling pathways, such as mitogen-activated protein kinase (MAPK) or PI3K/Akt, which are known to be the major effector pathways of KRAS activation. Cas9 mRNA (0.2 μg) and gRNA (0.2 μg or 0.5 μg) were associated with ADGN peptide at molar ratio 20/1 (peptide/nucleic acid). PANC1 and SW403 cells were cultured in 48 well plate format and treated with free mRNACas9-gRNA, or ADGN/mRNACas9:gRNA complex. Levels of Erk and Akt phosphorylation were measured 48 h post transfection by western blot using phospho-Akt (Ser 473) (CST, #9271, RRID:AB_329825) and phospho-p44/42 MAPK (Erk1/2) (Thr202/Tyr204) (CST, #4370, RRID:AB_2315112).

[1] = tested on: phospho-p44/42 MAPK (Erk1/2) (Thr202/Tyr204); experiment: as above; conditions: PANC-1 cells
Method: as §1

AGT TGG AGC TGA TGG CGT (guide AGTTGGAGCTGATGGCGT; chemistry not given here) [gRNA35A5, sgRNA target KRAS G12D mutation (35G>A); PAM AGG]
indel frequencies (wild type KRAS; HS68 cells (WT KRAS)): 2 ± 1%
indel frequencies (wild type KRAS; HT-29 cells (WT KRAS)): 2 ± 1%
level of p-AKT (phospho-Akt (Ser 473)): significantly reduced
level of P-Erk reduced by [1]: 15%
